Experimental data as given in US20160194683A1, “Gas Biosensors” (priority 2013, published 2016).
Read-outs that look alike come from different tables or passages of the source.

Experiments:
[1] = target: XylR of Pseudomonas putida (Pseudomonas putida, UniProt P06519)
[2] = tested on: TbuT of Ralstonia pickettii; conditions: host E. coli; tbuAlp-luxAB; cited from earlier work
TodST of P. putida = target: T1, TodST of P. putida (Pseudomonas putida, UniProt A5W4E3); conditions: host P. putida str. F1; todXp-luxCDABE; cited from earlier work
T1 construct: host or cells: P. putida str; F1
T1 sequence (A5W4E3 whole entry): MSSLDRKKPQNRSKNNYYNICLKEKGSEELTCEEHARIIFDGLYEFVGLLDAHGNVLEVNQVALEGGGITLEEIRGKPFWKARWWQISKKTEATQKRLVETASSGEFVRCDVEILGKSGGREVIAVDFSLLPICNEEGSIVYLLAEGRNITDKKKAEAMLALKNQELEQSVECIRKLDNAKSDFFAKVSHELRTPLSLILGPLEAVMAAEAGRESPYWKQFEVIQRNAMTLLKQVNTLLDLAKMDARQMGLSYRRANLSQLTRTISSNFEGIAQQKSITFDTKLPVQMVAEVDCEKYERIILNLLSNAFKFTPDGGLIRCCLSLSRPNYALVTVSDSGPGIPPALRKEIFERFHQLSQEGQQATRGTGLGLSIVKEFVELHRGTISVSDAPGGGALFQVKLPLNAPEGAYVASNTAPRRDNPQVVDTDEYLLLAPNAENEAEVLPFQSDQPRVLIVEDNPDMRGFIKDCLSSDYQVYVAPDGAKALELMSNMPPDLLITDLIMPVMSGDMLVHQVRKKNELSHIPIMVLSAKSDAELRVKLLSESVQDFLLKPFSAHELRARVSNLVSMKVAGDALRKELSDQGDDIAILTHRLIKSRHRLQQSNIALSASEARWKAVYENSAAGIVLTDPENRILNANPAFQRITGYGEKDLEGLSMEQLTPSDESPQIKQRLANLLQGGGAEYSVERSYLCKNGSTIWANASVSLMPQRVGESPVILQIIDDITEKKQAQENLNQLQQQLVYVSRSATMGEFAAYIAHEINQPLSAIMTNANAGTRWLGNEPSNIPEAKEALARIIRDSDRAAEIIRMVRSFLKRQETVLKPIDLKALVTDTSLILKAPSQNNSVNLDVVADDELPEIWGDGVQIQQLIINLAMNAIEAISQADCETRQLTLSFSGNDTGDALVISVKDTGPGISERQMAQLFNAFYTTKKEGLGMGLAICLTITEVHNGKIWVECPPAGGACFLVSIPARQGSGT

E. coli MG1655 = assay: Growth of E. coli MG1655 MHT integration strains in LB plus 200 mM KBr; assay type: cell-based; conditions: headspace gas collected at 5 hrs
Description: Three strains carrying an integrated Batis maritima MHT gene (BmMHT) were created by coupling the BmMHT gene to a constitutive promoter (P14) and three ribosomal binding sites (RBS) with different strengths (BCD2, BCD8, BCD14) in the integration vector pOSIP. Each was integrated into the phage 186 attachment site within the genome of E. coli MG1655 using the site specific recombinase from phage 186. Strains having the desired chromosomal insertions were verified by PCR.
Cells with a genomic copy of the MHT construct under control of the three different RBS were then tested for MHT activity by growing the cells in LB plus 200 mM KBr. Headspace gas was collected at 5 hrs, and CH3Br measured by GC-MS.
The CH3Br gas was readily detectable in the headspace, whereas the uninduced vector control cells produced no gas at all.

[3] = tested on: FruR of Erwinia herbicola; conditions: cited from earlier work
AraC of E. coli = AraC of E. coli (Escherichia coli, UniProt P0A9E0); conditions: cited from earlier work
Chain of AraC of E. coli (P0A9E0 whole entry): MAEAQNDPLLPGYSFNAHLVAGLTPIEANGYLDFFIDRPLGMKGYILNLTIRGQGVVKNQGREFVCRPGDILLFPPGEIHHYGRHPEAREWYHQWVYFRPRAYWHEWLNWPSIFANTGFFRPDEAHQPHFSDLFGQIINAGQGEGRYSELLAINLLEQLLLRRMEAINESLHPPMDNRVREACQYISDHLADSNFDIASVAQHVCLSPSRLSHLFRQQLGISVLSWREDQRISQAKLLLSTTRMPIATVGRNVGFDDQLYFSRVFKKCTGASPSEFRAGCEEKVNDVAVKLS

[4] = tested on: PhnR of Burkholderia sartisoli; conditions: host B. sartisoli; phnSp-luxAB; cited from earlier work
NahR of P. putida = target: T2, NahR of P. putida (Pseudomonas putida, UniProt P10183); conditions: host P. putida; nahGp-luxAB; cited from earlier work
T2 construct: host or cells: P. putida
T2 sequence (P10183 1-300): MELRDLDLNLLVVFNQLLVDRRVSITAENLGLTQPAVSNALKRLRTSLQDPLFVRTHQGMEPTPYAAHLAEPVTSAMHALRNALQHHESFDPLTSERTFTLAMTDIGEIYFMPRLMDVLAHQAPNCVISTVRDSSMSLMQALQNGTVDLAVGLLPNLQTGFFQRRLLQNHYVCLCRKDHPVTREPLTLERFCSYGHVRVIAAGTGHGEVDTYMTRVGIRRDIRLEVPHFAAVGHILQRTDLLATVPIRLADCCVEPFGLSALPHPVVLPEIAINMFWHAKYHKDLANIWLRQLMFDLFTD

DmpR of P. putida = conditions: host P. putida; Po-luxAB; cited from earlier work
[5] = tested on: SOS response proteins of B. subtilis; conditions: host B. subtilis; yorBp-lucFF; cited from earlier work
MphR of E. coli = conditions: host E. coli; mphAp-lacZ; cited from earlier work
[6] = tested on: SpoIIID and σ^E of B. subtilis; conditions: host B. subtilis; yheI-lucFF; cited from earlier work
DnaK and σ32 of E. coli = conditions: host E. coli; dnaKp-luxCDABE; increase in intracellular misfolded proteins; cited from earlier work
[7] = tested on: Crp-cAMP transcriptional dual regulator of E. coli; conditions: host E. coli; grpEP-luxCDABE; increase in intracellular misfolded proteins; cited from earlier work
ArsR of E. coli = conditions: host E. coli; arsRp-luxAB; cited from earlier work
RecA-LexA of E. coli [8] = conditions: host E. coli; sfiA-lacZ; cited from earlier work
RecA-LexA of E. coli [9] = conditions: host E. coli; reAp-luxCDABE; cited from earlier work
[10] = host Escherichia coli; Pu-lucFF; cited from earlier work

Chain of XylR of Pseudomonas putida (P06519 whole entry): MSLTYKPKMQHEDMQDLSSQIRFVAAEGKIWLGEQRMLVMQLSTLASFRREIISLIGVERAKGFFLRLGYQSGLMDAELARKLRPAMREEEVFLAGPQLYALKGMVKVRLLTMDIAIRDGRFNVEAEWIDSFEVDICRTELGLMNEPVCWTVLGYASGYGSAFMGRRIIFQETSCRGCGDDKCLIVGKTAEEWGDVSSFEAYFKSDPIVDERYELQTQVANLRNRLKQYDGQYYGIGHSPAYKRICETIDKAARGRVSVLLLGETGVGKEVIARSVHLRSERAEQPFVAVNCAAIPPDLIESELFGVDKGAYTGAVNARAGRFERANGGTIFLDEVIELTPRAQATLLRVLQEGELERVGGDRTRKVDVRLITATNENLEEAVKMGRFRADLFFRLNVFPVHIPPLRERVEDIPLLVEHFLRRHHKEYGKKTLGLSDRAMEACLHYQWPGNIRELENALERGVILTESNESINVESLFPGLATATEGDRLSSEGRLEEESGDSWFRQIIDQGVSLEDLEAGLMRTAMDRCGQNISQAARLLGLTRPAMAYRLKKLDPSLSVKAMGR

For `Cc1cccc(CO)c1` [3-methylbenzylalcohol], the EC50 ([1]; E. coli, firefly luciferase under XylR and Pu; means±standard deviations; read-out: K1/2 of luminescence concentration dependence; cited from earlier work) is listed as 2690 µM.
In the case of `c1ccccc1` [Benzene], the Detection sensitivity [1, 10] is listed as 40 µM, the Detection sensitivity [2] is listed as 0.24 µM and the Detection sensitivity (TodST of P. putida) is listed as 0.3 µM.
For `CBr` [CH3Br], the “Toxicity to cells (cell growth)” value (E. coli MG1655) was “Neither the bromine ions, nor the CH3Br gas were toxic”.
For `O=C(CO)[C@@H](O)[C@H](O)[C@H](O)CO` [Fructose], the Detection sensitivity [3] is listed as roughly 2 µM.
For `O=C[C@H](O)[C@@H](O)[C@@H](O)CO` [L-Arabinose], the Detection sensitivity (AraC of E. coli) is listed as 0.5 µM.
In the case of `c1ccc2ccccc2c1` [Naphthalene], the Detection sensitivity [4] is given as 0.17 µM and the Detection sensitivity (NahR of P. putida) is given as 10 nM.
In the case of `Oc1ccccc1` [Phenol], the Detection sensitivity (TodST of P. putida) is listed as 0.3 µM and the Detection sensitivity (DmpR of P. putida) is listed as 3 µM.
In the case of `Br` [bromine ions], the “Toxicity to cells (cell growth)” value (E. coli MG1655) is reported as “Neither the bromine ions, nor the CH3Br gas were toxic”.
For `O=C(O)c1cn(C2CC2)c2cc(N3CCNCC3)c(F)cc2c1=O` [ciprofloxacin], the Detection sensitivity [5] is given as 60 nM.
For `CC[C@H]1OC(=O)[C@H](C)[C@@H](O[C@H]2C[C@@](C)(OC)[C@@H](O)[C@H](C)O2)[C@H](C)[C@@H](O[C@@H]2O[C@H](C)C[C@H](N(C)C)[C@H]2O)[C@](C)(O)C[C@@H](C)C(=O)[C@H](C)[C@@H](O)[C@]1(C)O` [erythromycin], the Detection sensitivity (MphR of E. coli) is listed as roughly 10 µM.
In the case of `CC(=O)NC[C@H]1CN(c2ccc(N3CCOCC3)c(F)c2)C(=O)O1` [linezolid], the Detection sensitivity [6] is given as 0.1 µM.
For `Cc1cccc(C)c1` [m-xylene], the EC50 ([1]; read-out: K1/2 of luminescence concentration dependence; E. coli, firefly luciferase under XylR and Pu; means±standard deviations; cited from earlier work) is listed as 39 ± 3.8 µM and the Detection sensitivity (TodST of P. putida) is listed as 0.3 µM.
In the case of `CO` [methanol], the Detection sensitivity (DnaK and σ32 of E. coli) is listed as 0.25M methanol,.
For `Cc1ccc(C)cc1` [p-xylene], the Detection sensitivity (TodST of P. putida) is given as 0.3 µM.
In the case of `Oc1c(Cl)c(Cl)c(Cl)c(Cl)c1Cl` [pentachlorophenol], the Detection sensitivity [7] is given as 0.14 nM.
In the case of `c1ccc2c(c1)ccc1ccccc12` [phenanthrene], the Detection sensitivity [4] is given as 0.17 µM.
In the case of `O=C(O)c1ccccc1O` [salicylate], the Detection sensitivity (NahR of P. putida) is given as 10 nM.
In the case of `OC[C@H]1O[C@@](CO)(O[C@H]2O[C@H](CO)[C@@H](O)[C@H](O)[C@H]2O)[C@@H](O)[C@@H]1O` [sucrose], the Detection sensitivity [3] is listed as roughly 2 µM.
In the case of `Cc1ccccc1` [toluene], the Detection sensitivity [1, 10] is given as 40 µM, the Detection sensitivity [2] is given as 0.24 µM and the Detection sensitivity (TodST of P. putida) is given as 0.3 µM.
In the case of `ClC=C(Cl)Cl` [trichloroethene], the Detection sensitivity (TodST of P. putida) is given as 0.3 µM.
In the case of Arsenite, the Detection sensitivity (ArsR of E. coli) is given as 5 nM.
In the case of Xylene, the Detection sensitivity [1, 10] is given as 40 µM and the Detection sensitivity [2] is given as 0.24 µM.
For antimonite, the Detection sensitivity (ArsR of E. coli) is listed as 5 nM.
In the case of mitomycin C, the Detection sensitivity (RecA-LexA of E. coli [8]) is given as 4 nM mitomycin C and the Detection sensitivity (RecA-LexA of E. coli [9]) is given as 0.2 nM mitomycin C.
